Laboratory results: US9815831B2, “3,5-disubstituted-3H-imidazo[4,5-B]pyridine and 3,5-disubstituted-3H-[1,2,3]triazolo[4,5-B] pyridine compounds as modulators of c-Met protein kinases” (Rhizen Pharmaceuticals SA, priority 2012, dated 2017)
Where two headings read alike, the source gives them in different places.

Tests used:
[1] = target: T1, human recombinant Met kinase (Homo sapiens, UniProt P08581); experiment: Colorimetric determination of c-Met kinase activity (HTScan Met Kinase Assay Kit); type: biochemical; conditions: for inhibition: cells marked *: tested @ 300 nM, read-out: c-Met Enzyme % inhibition; for inhibition at 0.1 µM: 100 nM (cells without *), read-out: c-Met Enzyme % inhibition @ 100 nM
T1 construct: purchased Cell Signalling Technology, Beverly, Mass
T1 sequence (P08581 25-1390): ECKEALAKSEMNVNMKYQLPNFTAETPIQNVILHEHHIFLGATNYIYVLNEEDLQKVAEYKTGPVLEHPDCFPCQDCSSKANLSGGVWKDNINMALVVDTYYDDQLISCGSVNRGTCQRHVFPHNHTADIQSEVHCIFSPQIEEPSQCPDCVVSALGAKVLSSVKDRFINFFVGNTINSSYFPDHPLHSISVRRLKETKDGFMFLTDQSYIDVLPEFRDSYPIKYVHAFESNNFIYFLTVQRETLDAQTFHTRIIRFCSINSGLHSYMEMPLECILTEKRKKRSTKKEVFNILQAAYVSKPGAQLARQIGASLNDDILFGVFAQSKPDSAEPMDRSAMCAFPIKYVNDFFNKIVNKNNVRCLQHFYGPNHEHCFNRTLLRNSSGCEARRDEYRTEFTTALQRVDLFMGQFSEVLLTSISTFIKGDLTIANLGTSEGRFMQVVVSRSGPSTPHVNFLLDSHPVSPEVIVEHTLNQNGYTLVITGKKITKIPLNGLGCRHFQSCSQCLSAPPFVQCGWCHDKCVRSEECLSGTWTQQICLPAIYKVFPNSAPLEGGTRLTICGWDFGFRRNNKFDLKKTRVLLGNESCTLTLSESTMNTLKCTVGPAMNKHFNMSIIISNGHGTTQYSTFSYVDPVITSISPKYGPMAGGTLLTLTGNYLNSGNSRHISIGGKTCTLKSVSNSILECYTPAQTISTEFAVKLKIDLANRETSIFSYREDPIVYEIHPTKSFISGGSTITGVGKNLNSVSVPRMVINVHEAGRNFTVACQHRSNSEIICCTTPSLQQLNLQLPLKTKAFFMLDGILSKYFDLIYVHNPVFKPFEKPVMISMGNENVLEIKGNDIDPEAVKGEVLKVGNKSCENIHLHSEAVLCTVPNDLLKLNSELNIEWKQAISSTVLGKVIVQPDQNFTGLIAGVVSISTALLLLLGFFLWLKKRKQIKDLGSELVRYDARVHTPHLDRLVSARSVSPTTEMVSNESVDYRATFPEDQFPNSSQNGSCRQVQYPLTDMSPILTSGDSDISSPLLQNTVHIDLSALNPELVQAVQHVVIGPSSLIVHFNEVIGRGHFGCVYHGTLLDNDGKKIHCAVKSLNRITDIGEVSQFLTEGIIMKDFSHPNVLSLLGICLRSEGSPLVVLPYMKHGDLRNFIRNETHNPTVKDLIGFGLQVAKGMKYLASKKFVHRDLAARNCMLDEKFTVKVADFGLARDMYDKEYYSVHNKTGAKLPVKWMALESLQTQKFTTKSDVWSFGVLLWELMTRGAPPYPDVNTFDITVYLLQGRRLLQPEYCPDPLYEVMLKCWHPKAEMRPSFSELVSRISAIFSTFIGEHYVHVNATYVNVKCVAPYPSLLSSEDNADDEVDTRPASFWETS
From the text: 1. MET Kinase Assay Protocol:
Colorimetric Determination of c-Met Kinase Activity
The receptor tyrosine kinase c-Met is a heterodimeric transmembrane glycoprotein involved in several cellular processes that aid in tumor progression. Phosphorylation of the tyrosine residues in the c-Met kinase domain is critical for its activity and the resulting down-stream effects. The colorimetric assay allows detection of the phosphorylated form of a biotinylated peptide upon activation of human recombinant Met kinase.
MET Kinase Assay Protocol:
c-Met Kinase activity shall be determined using an HTScan® Met Kinase Assay Kit (Cell Signalling Technology, Beverly, Mass.) with modifications. All incubations are carried out at room temperature. Briefly, 12.5 μl of a 4× reaction cocktail (DTT/Kinase buffer containing appropriate quantity of human Met kinase) is added to each well of a 96-well plate containing 12.5 μl pre-diluted compound of interest and incubated for 5 minutes. After the initial incubation, 25 μl/well of 2×ATP/biotinylated peptide is added and incubated for an additional 30 minutes. The reaction is terminated by the addition of 50 μl/well stop buffer (50 mM EDTA, pH 8.0). The reaction mixture (25 μl/well) is then transferred to a streptavidin coated plate (Perkin Elmer, Cat#4009-0010) containing 75 μl dH2O and incubated for 60 minutes. The plate is washed with 200 μl/well wash buffer (1×PBS, 0.05% Tween-20). After washing, 100 μl/well phospho-tyrosine mAb (1:1000 in wash buffer containing 1% BSA) is added and incubated for 60 minutes. After another round of washes, 100 μl/well europium labelled anti-mouse IgG (1:500 in wash buffer containing 1% BSA) is added and incubated for an additional 30 minutes. Following additional washes, 100 μl/well Delfia^(R) enhancement solution (Perkin Elmer, Cat#1244-105) is added and incubated for 45 minutes. Florescence is measured on a microplate reader (BMG Labtech., Germany) at 340 nm (excitation) and 615 nm (emission) for calculating % inhibition. Data generated can be analyzed further using Graphpad Prism (Graphpad software, San Diego Calif.) for determination of IC50.
Results: The results are as given below in Table 4A, 4B and 4C as % Inhibition or IC50 of c-Met

MKN-45 = experiment: Inhibition of MKN-45 proliferation (MTT); type: cell-based, human; conditions: Homo sapiens; for GI50: read-out: MKN45 GI50; for inhibition at 0.1 µM: 100 nM, read-out: MKN45 % inhibition @ 100 nM
Protocol: 3. Inhibition of MKN-45 Proliferation:
Cell proliferation assays were carried out using the high Met expressing human gastric adenocarcinoma cell line, MKN-45, according to the following schedule: • Day 1: Cells were plated in 96-well plates in complete growth medium. • Day 2: Compounds at desired concentrations were added. • Day 5: Cell viability was determined using the 3-[4,5-dimethylthiazol-2-yl]-2,5-diphenyltetrazolium bromide (MTT) dye reduction test. Results: The results are as given as % Inhibition of MKN-45 proliferation at 100 nM and GI50 values in Table 4A to 4C above. 4. Inhibition of c-Met Kinase Phosphorylation in MKN-45 Cells: […]

[2] = target: T1, human recombinant Met kinase; experiment: Colorimetric determination of c-Met kinase activity (HTScan Met Kinase Assay Kit); type: biochemical; conditions: read-out: c-Met Enzyme IC50
[3] = MKN-45, Table 4A, MKN-45 proliferation
[4] = MKN-45, Table 4C, MKN-45 proliferation
[5] = MKN-45, Table 4B, MKN-45 proliferation

Row | SMILES | GI50 (MKN-45; [3]) [nM] | inhibition at 0.1 µM ([1]; Table 4A) [%] | inhibition at 0.1 µM (MKN-45; [3]) [%] | also measured
1 | NC(=O)c1ccc(-c2ccc3ncn(Cc4c(F)cc5ncccc5c4F)c3n2)cc1C(F)(F)F [Example 1028, 4-[3-(5,7-Difluoro-quinolin-6-ylmethyl)-3H-imidazo[4,5-b]pyridin-5-yl]-2-trifluoromethyl-benzamide] | – | – | – | inhibition at 0.1 µM ([1]; Table 4C): 75 to 100%; inhibition at 0.1 µM (MKN-45; [4]): 75 to 100%
2 | CC(O)CONC(=O)c1ccc(-c2ccc3nnn(Cc4ccc5ncccc5c4)c3n2)cc1Cl (centres unmarked) [Example 28, 2-chloro-N-(2-hydroxypropoxy)-4-(3-(quinolin-6-ylmethyl)-3H-[1,2,3]triazolo[4,5-b]pyridin-5-yl)benzamide] | 25 to 50 | 75 to 100 | 75 to 100 | –
3 | COC(=O)N/N=C(\C)c1ccc2nnn(Cc3ccc4ncccc4c3)c2n1 [Example 58, Methyl 2-(1-(3-(quinolin-6-ylmethyl)-3H-[1,2,3]triazolo[4,5-b]pyridin-5-yl)ethylidene)hydrazinecarboxylate] | – | – | 25 to 50 | inhibition ([1]; Table 4A): < 25%
4 | CC(=NO)c1ccc2nnn(Cc3cc4cccnc4cc3F)c2n1 [Example 59, 1-(3-((7-fluoroquinolin-6-yl)methyl)-3H-[1,2,3]triazolo[4,5-b]pyridin-5-yl) ethanone oxime] | 25 to 50 | – | – | IC50 ([2]; Table 4A): 25 to 50 nM
5 | C/C(=N\NC(=O)OC(C)(C)C)c1ccc2nnn(Cc3ccc4ncccc4c3)c2n1 [Example 53, tert-butyl 2-(1-(3-(quinolin-6-ylmethyl)-3H-[1,2,3]triazolo[4,5-b]pyridin-5-yl)ethylidene)hydrazinecarboxylate] | – | – | < 25 | inhibition ([1]; Table 4A): < 25%
6 | C/C(=N\NC(N)=S)c1ccc2ncn(Cc3ccc4ncccc4c3)c2n1 [Example 108, 2-(1-(3-(quinolin-6-ylmethyl)-3H-imidazo[4,5-b]pyridin-5-yl)ethylidene)hydrazinecarbothioamide] | – | – | – | inhibition ([1]; Table 4B): < 25%; inhibition at 0.1 µM (MKN-45; [5]): < 25%
7 | C/C(=N\NC(N)=O)c1ccc2ncn(Cc3ccc4ncccc4c3)c2n1 [Example 107, 2-(1-(3-(quinolin-6-ylmethyl)-3H-imidazo[4,5-b]pyridin-5-yl)ethylidene)hydrazinecarboxamide] | – | – | – | inhibition at 0.1 µM (MKN-45; [5]): < 25%; GI50 (MKN-45; [5]): 250 to 1000 nM; IC50 ([2]; Table 4B): 100 to 250 nM
8 | C/C(=N\Nc1ccccn1)c1ccc2nnn(Cc3ccc4ncccc4c3)c2n1 [Example 51, 6-((5-(1-(2-(pyridin-2-yl)hydrazono)ethyl)-3H-[1,2,3]triazolo[4,5-b]pyridin-3-yl)methyl)quinoline] | – | – | < 25 | inhibition ([1]; Table 4A): < 25%
9 | Cc1cc(-c2ccc3ncn(Cc4ccc5ncccc5c4)c3n2)ccc1C(=O)NOCC(C)(C)O [Example 112, N-(2-Hydroxy-2-methyl-propoxy)-2-methyl-4-(3-quinolin-6-ylmethyl-3H-imidazo[4,5-b]pyridin-5-yl)-benzamide] | – | – | – | inhibition at 0.1 µM ([1]; Table 4B): 75 to 100%; inhibition at 0.1 µM (MKN-45; [5]): < 25%
10 | NC(=O)CCNC(=O)c1ccc(-c2ccc3nnn(Cc4ccc5ncccc5c4)c3n2)cc1 [Example 3, N-(3-amino-3-oxopropyl)-4-(3-(quinolin-6-ylmethyl)-3H-[1,2,3]triazolo[4,5-b]pyridin-5-yl)benzamide] | 100 to 250 | – | – | inhibition ([1]; Table 4A): 50 to 75%
11 | CONC(=O)c1c(F)cc(-c2ccc3ncn(Cc4ccc5ncccc5c4)c3n2)cc1F [Example 105, 2,6-difluoro-N-methoxy-4-(3-(quinolin-6-ylmethyl)-3H-imidazo[4,5-b]pyridin-5-yl)benzamide] | – | – | – | inhibition ([1]; Table 4B): 25 to 50%; inhibition at 0.1 µM (MKN-45; [5]): < 25%
12 | Cc1cc(-c2ccc3nnn(Cc4cc5cccnc5cc4F)c3n2)ccc1C(=O)NOCCO [Example 26, 4-(3-((7-fluoroquinolin-6-yl)methyl)-3H-[1,2,3]triazolo[4,5-b]pyridin-5-yl)-N-(2-hydroxyethoxy)-2-methylbenzamide] | 25 to 50 | 75 to 100 | 75 to 100 | –
13 | C/C(=N\OCCO)c1ccc2nnn(Cc3ccc4ncccc4c3)c2n1 [Example 62, 1-(3-(quinolin-6-ylmethyl)-3H-[1,2,3]triazolo[4,5-b]pyridin-5-yl)ethanone O-2-hydroxyethyl oxime] | – | – | < 25 | inhibition ([1]; Table 4A): < 25%
14 | CCNC(=O)c1c(F)cc(-c2ccc3ncn(Cc4ccc5ncccc5c4)c3n2)cc1F [Example 1016, N-ethyl-2,6-difluoro-4-(3-(quinolin-6-ylmethyl)-3H-imidazo[4,5-b]pyridin-5-yl)benzamide] | – | – | – | inhibition ([1]; Table 4C): 25 to 50%; inhibition at 0.1 µM (MKN-45; [4]): < 25%
15 | CNC(=O)c1ccc(-c2ccc3ncn(Cc4ccc5ncccc5c4)c3n2)cc1Cl [Example 1017, 2-chloro-N-methyl-4-(3-(quinolin-6-ylmethyl)-3H-imidazo[4,5-b]pyridin-5-yl)benzamide] | – | – | – | inhibition ([1]; Table 4C): 25 to 50%; inhibition at 0.1 µM (MKN-45; [4]): < 25%
16 | Cc1nc2ccc(-c3ccc(C(N)=O)c(Cl)c3)nc2n1Cc1ccc2ncccc2c1 [Example 1020, 2-chloro-4-(2-methyl-3-(quinolin-6-ylmethyl)-3H-imidazo[4,5-b]pyridin-5-yl)benzamide] | – | – | – | inhibition ([1]; Table 4C): < 25%; inhibition at 0.1 µM (MKN-45; [4]): 50 to 75%

Now from value to compound, other results behind:

Row | GI50 (MKN-45; [3]) [nM] | inhibition at 0.1 µM ([1]; Table 4A) [%] | SMILES | inhibition at 0.1 µM (MKN-45; [3]) [%] | also measured
17 | 250 to 1000 | – | CNC(=O)CCNC(=O)c1ccc(-c2ccc3nnn(Cc4ccc5ncccc5c4)c3n2)cc1 [Example 4, N-(3-(methylamino)-3-oxopropyl)-4-(3-(quinolin-6-ylmethyl)-3H-[1,2,3]triazolo[4,5-b]pyridin-5-yl)benzamide] | – | inhibition ([1]; Table 4A): 75 to 100%
18 | – | 75 to 100 | NC(=O)CNC(=O)c1ccc(-c2ccc3nnn(Cc4ccc5cccnc5c4)c3n2)cc1 [Example 1, N-(2-amino-2-oxoethyl)-4-(3-(quinolin-7-ylmethyl)-3H-[1,2,3]triazolo[4,5-b]pyridin-5-yl) benzamide] | – | inhibition at 0.1 µM (MKN-45; MKN-45, Table 4A, cell printed as a number, not a class letter): 0%
19 | 25 to 50 | 75 to 100 | O=C(NOCCO)c1ccc(-c2ccc3nnn(Cc4cc5cccnc5cc4F)c3n2)cc1C(F)(F)F [Example 24, 4-(3-((7-fluoroquinolin-6-yl)methyl)-3H-[1,2,3]triazolo[4,5-b]pyridin-5-yl)-N-(2-hydroxyethoxy)-2-(trifluoromethyl)benzamide] | 75 to 100 | –
20 | 50 to 100 | 75 to 100 | O=C(NOCCO)c1ccc(-c2ccc3nnn(Cc4ccc5ncccc5c4)c3n2)cc1C(F)(F)F [Example 23, N-(2-hydroxyethoxy)-4-(3-(quinolin-6-ylmethyl)-3H-[1,2,3]triazolo[4,5-b]pyridin-5-yl)-2-(trifluoromethyl)benzamide] | 75 to 100 | –
21 | 25 to 50 | 75 to 100 | O=C(NOCCO)c1ccc(-c2ccc3nnn(Cc4cc5cccnc5cc4F)c3n2)cc1F [Example 27, 2-fluoro-4-(3-((7-fluoroquinolin-6-yl)methyl)-3H-[1,2,3]triazolo[4,5-b]pyridin-5-yl)-N-(2-hydroxyethoxy)benzamide] | 75 to 100 | –
22 | – | 75 to 100 | Cc1cc(-c2ccc3nnn(Cc4ccc5ncccc5c4)c3n2)ccc1C(=O)NOC[C@@H](C)O [Example 38, (R)—N-(2-hydroxypropoxy)-2-methyl-4-(3-(quinolin-6-ylmethyl)-3H-[1,2,3]triazolo[4,5-b]pyridin-5-yl)benzamide] | 75 to 100 | –
